Data reported in the supplement of paper PMC10307832.

Columns and labels:
Test in all cases: relative viability (nuclei count vs DMSO), 5 days (fraction); higher = more cells survive
[1] = compound: CC1=C(N=C(N=C1N)[C@H](CC(=O)N)NC[C@@H](C(=O)N)N)C(=O)N[C@@H]([C@H](C2=CN=CN2)OC3C(C(C(C(O3)CO)O)O)OC4C(C(C(C(O4)CO)O)OC(=O)N)O)C(=O)N[C@H](C)[C@H]([C@H](C)C(=O)N[C@@H]([C@@H](C)O)C(=O)NCCC5=NC(=CS5)C6=NC(=CS6)C(=O)NCCC[S+](C)C)O [Bleomycin] + CC1(C)CCC(c2ccc(Cl)cc2)=C(CN2CCN(c3ccc(C(=O)NS(=O)(=O)c4ccc(N[C@H](CCN5CCOCC5)CSc5ccccc5)c(S(=O)(=O)C(F)(F)F)c4)cc3)CC2)C1 [Navitoclax] (partner 0.5 µM); details: main component drawn
How it was run: (§1)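 Each reported value is a median over duplicate plates. It expresses relative viability: treated-well nuclei count divided by vehicle-well nuclei count. Lung cancer cell lines in 1536-well plates were dosed by pin tool a day after seeding, alone with one drug or with a fixed anchor-drug dose plus five library-drug doses (not always all listed) in √10 steps, and nuclei were counted after 5 days.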

[2] = compound: CC1=C(N=C(N=C1N)[C@H](CC(=O)N)NC[C@@H](C(=O)N)N)C(=O)N[C@@H]([C@H](C2=CN=CN2)OC3C(C(C(C(O3)CO)O)O)OC4C(C(C(C(O4)CO)O)OC(=O)N)O)C(=O)N[C@H](C)[C@H]([C@H](C)C(=O)N[C@@H]([C@@H](C)O)C(=O)NCCC5=NC(=CS5)C6=NC(=CS6)C(=O)NCCC[S+](C)C)O [Bleomycin] + CS(=O)(=O)CCNCc1ccc(-c2ccc3ncnc(Nc4ccc(OCc5cccc(F)c5)c(Cl)c4)c3c2)o1 [Lapatinib] (partner 2 µM); details: main component drawn
How it was run: as §1

[3] = compound: COc1cc([C@@H]2c3cc4c(cc3[C@@H](O[C@@H]3O[C@@H]5CO[C@@H](C)O[C@H]5[C@H](O)[C@H]3O)[C@H]3COC(=O)[C@H]23)OCO4)cc(OC)c1O [Etoposide] + CCNC(=O)c1noc(-c2cc(C(C)C)c(O)cc2O)c1-c1ccc(CN2CCOCC2)cc1 [Luminespib] (partner 0.01 µM)
How it was run: as §1

[4] = compound: COc1cc([C@@H]2c3cc4c(cc3[C@@H](O[C@@H]3O[C@@H]5CO[C@@H](C)O[C@H]5[C@H](O)[C@H]3O)[C@H]3COC(=O)[C@H]23)OCO4)cc(OC)c1O [Etoposide] + Cc1nc(Nc2ncc(C(=O)Nc3c(C)cccc3Cl)s2)cc(N2CCN(CCO)CC2)n1 [Dasatinib] (partner 0.075 µM)
How it was run: as §1

Cell Line	relative viability ([1]; first compound 0.01 µM)	relative viability ([1]; first compound 0.03162 µM)	relative viability ([1]; first compound 0.1 µM)	relative viability ([1]; first compound 0.3162 µM)	relative viability ([1]; first compound 1 µM)	relative viability ([2]; first compound 0.01 µM)	relative viability ([2]; first compound 0.03162 µM)	relative viability ([2]; first compound 0.1 µM)	relative viability ([2]; first compound 0.3162 µM)	relative viability ([2]; first compound 1 µM)	relative viability ([3]; first compound 0.01 µM)	relative viability ([3]; first compound 0.03162 µM)	relative viability ([3]; first compound 0.1 µM)	relative viability ([3]; first compound 0.3162 µM)	relative viability ([3]; first compound 1 µM)	relative viability ([4]; first compound 0.01 µM)	relative viability ([4]; first compound 0.03162 µM)	relative viability ([4]; first compound 0.1 µM)	relative viability ([4]; first compound 0.3162 µM)	relative viability ([4]; first compound 1 µM)
NCI-H1975	0.872	0.878	0.584	0.28	0.222	0.657	0.551	0.542	0.25	0.213	0.34	0.199	0.125	0.242	0.199	0.336	0.426	0.32	0.348	0.214
CAL-12T	0.964	0.785	0.551	0.228	0.201		0.557	0.454	0.218	0.21	0.28	0.531	0.212	0.287	0.348	0.345	0.473	0.351	0.396	0.196
NCI-H1623											0.541	0.537	0.347	0.405	0.28	0.68	0.592	0.334	0.267	0.294
HCC-44	0.674	0.323	0.278	0.161	0.191	0.648	0.429	0.228	0.193	0.145	1.03	0.84	0.774	0.411	0.279					
EKVX	0.75	0.925	0.842	0.424	0.285	0.211	0.209	0.187	0.127	0.166	0.921	0.885	0.444	0.658	0.307	0.619	0.529	0.354	0.37	0.282
NCI-H1651	0.944	0.82	0.614	0.272	0.136	0.75	0.653	0.595	0.229	0.149	0.815	0.724	0.681	0.308	0.209	0.282	0.426	0.385	0.189	0.0972
NCI-H1944	0.762	0.77	0.594	0.423	0.233	0.533	0.41	0.355	0.242	0.151	0.519	0.936	0.597	0.404	0.247	0.213	0.23	0.159	0.189	0.102
NCI-H1703	1.05	1.11	0.531	0.278	0.203	1.01	1	0.807	0.287	0.281										
